Values after ≈ are worked out from the molar mass of the structure shown. Like-named read-outs stand apart in the source and are kept apart here.
What was measured:
[1] = tested on: wild-type E. coli CGSC#7636 (BW25113); experiment: MIC, wild-type E. coli; type: cell-based; conditions: for MIC WT: E. coli WT BW25113; for MIC: Escherichia coli
Method: (§1) The inoculum used for all the experiments is derived from a single seed lot that is maintained as glycerol stocks at −80 °C and are sub cultured on LB plate for isolated colonies. Single colony of each strain is grown in M9 medium. All test compound stocks and dilutions are prepared in DMSO. Serial two-fold dilutions of compounds are prepared separately, with the concentrations ranging from 2 mg/mL to 0.015 mg/mL. To 150 µl (3–7 × 10^5 CFU/ml) of bacterial culture in 96 well microtitre plates, 3 μL compound from each of the dilutions is added to respective wells to obtain final concentrations ranging from 40 µg/mL to 0.3 µg/mL of the test compounds. Media control, culture control and appropriate reference drug controls are included. […] Growth is monitored by checking absorbance at 600 nm (A600). […] The samples from MIC and above concentrations are plated for MBC (Minimum Bactericidal Concentration). The samples are diluted 1:10 and plated on LB agar plates. […] The killing kinetics is determined by enumerating survivors at various time points following compound exposure. E. coli cells (~10^7 CFU/ml; A600 of 0.1) are treated with various concentrations (40 µg/mL to 0.3 µg/mL) of compounds in a 96-well microtitre plate. At various time intervals (0 to 8 h), 30 μl volumes of treated cultures are serially diluted and plated on LB agar plates. […] Data is expressed as the log10 CFU for each drug treatment.

E. coli ∆tolC JW5503-1 = experiment: MIC, E. coli ∆tolC; type: cell-based; conditions: for MIC tolC: E. coli ∆tolC; for MIC: Escherichia coli, read-out: MIC tolC
Method: as §1

E. coli ∆acrB JW0451-2 = experiment: MIC, E. coli ∆acrB; type: cell-based; conditions: for MIC acrB: E. coli ∆acrB; for MIC: Escherichia coli, read-out: MIC acrB
Method: as §1

NfsB = biological target: T1, NfsB (Escherichia coli, UniProt P38489); experiment: Nitroreductase activity assay, NfsB; type: biochemical, E. coli
T1 construct: His-tag; made in house; host or cells: E. coli BL21(DE3), pET28a (pET-nfsB)
T1 sequence (P38489 whole entry): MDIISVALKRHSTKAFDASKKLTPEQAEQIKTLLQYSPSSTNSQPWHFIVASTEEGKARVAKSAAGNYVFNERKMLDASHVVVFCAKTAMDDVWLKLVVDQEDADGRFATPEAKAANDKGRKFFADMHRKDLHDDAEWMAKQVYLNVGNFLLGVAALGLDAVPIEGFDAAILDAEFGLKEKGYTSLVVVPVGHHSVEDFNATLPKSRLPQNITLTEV
Method: (§2) Enzyme reducing each of the substrates are measured by monitoring the concomitant oxidation of NADPH by NfsA and NADH by NfsB in a fluorescence based assay. The reduction in fluorescence due to the NADH oxidation (excitation 350 nm, emission 460 nm) and NADPH oxidation (excitation 340 nm, emission 485 nm) is recorded using a TECAN Infinite M200Pro spectrophotometer, in half area solid black microtiter plates. This change in fluorescence directly corelates to the reduction of the nitro-compounds in the reaction. The NfsA assays is performed by initiating the reactions with 40 μM NADPH and 10 nM NfsA in 50 mM Tris-HCl (pH 7.4), 5 mM EDTA against 20 μM substrate (5 μl of compounds/substrate dissolved in 100% DMSO) in a total reaction volume of 100 μl at 25 °C. Similarly, the NfsB assay is also performed by initiating the reactions with 40 μM NADH and 70 nM NfsB in 50 mM Tris-HCl (pH 7.4), 5 mM EDTA against 20 μM substrate in a total reaction volume of 100 μl. […] All reactions are performed in replicates of two or more and the fluorescence measurements are made at 10 second intervals for 5–10 minutes.
(§3) Low solubility of the compounds/substrates under the NfsA and NfsB assay conditions precluded determination of their Km. […] The relative fluorescence units (RFU) obtained due to NADPH (excitation 340 nm, emission 485 nm) or NADH (excitation 350 nm, emission 460 nm) oxidation of the first 90 sec reaction is used to compute the slopes using linear regression analysis on GraphPad Prism. Appropriate blank reactions are included to account for background fluorescence/quenching from each of the components such as DMSO, the compound itself and auto-oxidation of NADPH or NADH. Activity of NfsB with a known substrate such as nitrofurantoin is used as a benchmark to plot the relative activities with all the test compounds.

E. coli ∆nfsA = experiment: microbe, parasite or virus in culture; type: cell-based; conditions: Escherichia coli, read-out: MIC ∆nfsA
Method: (§4) To assess the biological relevance of the interacting protein and establish the link between nitroreductases to the antibacterial activity of NTC compounds, single (ΔnfsA or ΔnfsB) and double knockouts (ΔnfsA & ΔnfsB) of nitroreductases were generated by phage transduction using strains from the Keio collection.
as §1

E. coli ∆nfsA + ∆nfsB = experiment: microbe, parasite or virus in culture; type: cell-based
Method: as §4, §1

NfsA = biological target: T2, NfsA (Escherichia coli, UniProt P17117); experiment: Nitroreductase activity assay, NfsA; type: biochemical, E. coli
T2 construct: His-tag; made in house; host or cells: E. coli BL21(DE3), pET28a (pET-nfsA)
T2 sequence (P17117 whole entry): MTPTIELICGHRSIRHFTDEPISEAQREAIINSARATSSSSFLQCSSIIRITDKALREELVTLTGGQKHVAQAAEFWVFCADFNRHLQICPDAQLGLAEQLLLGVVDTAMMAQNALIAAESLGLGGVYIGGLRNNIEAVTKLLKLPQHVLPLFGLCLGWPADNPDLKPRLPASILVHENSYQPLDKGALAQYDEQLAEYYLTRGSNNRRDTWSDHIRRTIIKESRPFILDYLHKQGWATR
Method: as §2, §3

E. coli ∆nfsB = experiment: microbe, parasite or virus in culture; type: cell-based; conditions: Escherichia coli, read-out: MIC ∆nfsB
Method: as §4, §1
The wild-type E. coli strain BW25113 and the entire Keio collection of knockouts[22] is maintained as glycerol stocks at −80 °C in 96-well deep well blocks. […] These are sub cultured in 150 µl of LB broth (Kanamycin 50 ug/ml, except for the wild-type strain) in 96 well microtiter plates and then adapted into M9 medium with 0.4% glucose. […] Cultures of single gene knockouts that show an altered MIC as compared to that of the wild type are scored as ‘Hits’.

[2] = BW25113, E. coli WT BW25113, read-out: MIC WT

Molecule	MIC [1, 2] [µg/mL]	MIC (E. coli ∆tolC JW5503-1) [µg/mL]	MIC (E. coli ∆acrB JW0451-2) [µg/mL]	also measured
N-(4-(3-Fluoro-4-methylphenyl)thiazol-2-yl)-5-nitrothiophene-2-carboxamide [compound 13]				MIC WT [1]: 1.25 µg/mL; MIC tolC (E. coli ∆tolC JW5503-1): 0.3 µg/mL; MIC acrB (E. coli ∆acrB JW0451-2): 0.3 µg/mL
COc1cc(-c2csc(NC(=O)c3ccc([N+](=O)[O-])s3)n2)ccc1C(F)(F)F [compound 23, N-(4-(3-methoxy-4-(trifluoromethyl)phenyl)thiazol-2-yl)-5-nitrothiophene-2-carboxamide]	2.5 (≈ 5.82 µM)	1.25 (≈ 2.91 µM)	2.5 (≈ 5.82 µM)	
Cc1sc(NC(=O)c2ccc(C(F)(F)F)s2)nc1-c1ccccc1 [compound 8, N-(5-Methyl-4-phenylthiazol-2-yl)-5-(trifluoromethyl) thiophene-2-carboxamide]	> 40	> 40	> 40	
O=C(Nc1nc(-c2ccc(OC(F)(F)F)cc2)cs1)c1ccc([N+](=O)[O-])s1 [compound 16, 5-Nitro-N-(4-(4-(trifluoromethoxy)phenyl)thiazol-2-yl)thiophene-2-carboxamide]	5 (≈ 12 µM)	0.3 (≈ 0.722 µM)	1.25 (≈ 3.01 µM)	
COc1cc(-c2csc(NC(=O)c3ccc([N+](=O)[O-])s3)n2)ccc1F [compound 19, N-(4-(4-fluoro-3-methoxyphenyl)thiazol-2-yl)-5-nitrothiophene-2-carboxamide]	1.25 (≈ 3.29 µM)	0.6 (≈ 1.58 µM)	0.3 (≈ 0.791 µM)	
Cc1cc(F)ccc1-c1csc(NC(=O)c2ccc([N+](=O)[O-])s2)n1 [compound 18, N-(4-(4-fluoro-2-methylphenyl)thiazol-2-yl)-5-nitrothiophene-2-carboxamide]	2.5 (≈ 6.88 µM)	0.3 (≈ 0.826 µM)	0.6 (≈ 1.65 µM)	
CCOc1cc(-c2csc(NC(=O)c3ccc([N+](=O)[O-])s3)n2)ccc1Cl [compound 22, N-(4-(4-chloro-3-ethoxyphenyl)thiazol-2-yl)-5-nitrothiophene-2-carboxamide]		0.6 (≈ 1.46 µM)	1.25 (≈ 3.05 µM)	MIC ([1]; BW25113, read-out: MIC WT): 1.25 µg/mL (≈ 3.05 µM)
O=C(Nc1nc(-c2cc(F)cc(F)c2)cs1)c1ccc([N+](=O)[O-])s1 [compound 24, N-(4-(3,5-difluorophenyl)thiazol-2-yl)-5-nitrothiophene-2-carboxamide]	> 20	0.3 (≈ 0.817 µM)	0.3 (≈ 0.817 µM)	
N#Cc1ccc(-c2csc(NC(=O)c3ccc([N+](=O)[O-])s3)n2)cc1 [compound 14, N-(4-(4-cyanophenyl)thiazol-2-yl)-5-nitrothiophene-2-carboxamide]	> 40	20 (≈ 56.1 µM)	20 (≈ 56.1 µM)	MIC WT [1]: >40 µg/mL; fold loss in MIC against ∆tolC (E. coli ∆tolC JW5503-1; compared to compound 12): > 100 fold; NfsB activity (rate of compound conversion) (NfsB; 20 μM compound, 40 μM NADH, 70 nM NfsB, slope of initial velocity): 1.31 µM/min; conversion by NfsB (in words) (NfsB; biochemical assay): not converted; MIC (E. coli ∆nfsA): > 40 µg/mL; MIC (E. coli ∆nfsA + ∆nfsB; Escherichia coli, read-out: MIC ∆nfsA + ∆nfsB): > 40 µg/mL; antibacterial activity in double knockout (in words) (E. coli ∆nfsA + ∆nfsB; ΔnfsA and ΔnfsB double knockout strain): inactive; NfsA activity (rate of compound conversion) (NfsA; 20 μM compound, 40 μM NADPH, 10 nM NfsA, slope of initial velocity): 0.20 µM/min; conversion by NfsA (in words) (NfsA; biochemical assay): not converted; MIC (E. coli ∆nfsB): > 40 µg/mL
O=C(Nc1nc(-c2ccc(F)c(F)c2)cs1)c1ccc([N+](=O)[O-])s1 [compound 11, N-(4-(3,4-Difluorophenyl)thiazol-2-yl)-5-nitrothiophene-2-carboxamide]	0.6 (≈ 1.63 µM)	0.15 (≈ 0.408 µM)	0.3 (≈ 0.817 µM)	
Cc1sc(NC(=O)c2ccc([N+](=O)[O-])s2)nc1-c1ccc(F)cc1 [compound 9, N-(4-(4-Fluorophenyl)-5-methylthiazol-2-yl)-5-nitrothiophene-2-carboxamide]	> 40	0.6 (≈ 1.65 µM)	0.6 (≈ 1.65 µM)	
O=C(Nc1nc(-c2ccc(Cl)c(F)c2)cs1)c1ccc([N+](=O)[O-])s1 [compound 21, N-(4-(4-Chloro-3-fluorophenyl)thiazol-2-yl)-5-nitrothiophene-2-carboxamide]		2.5 (≈ 6.51 µM)	1.25 (≈ 3.26 µM)	MIC ([1]; BW25113, read-out: MIC WT): 1.25 µg/mL (≈ 3.26 µM)
5-Nitro-N-(4-(6-(trifluoromethyl)pyridin-3-yl)thiazol-2-yl)thiophene-2-carboxamide [compound 17]				MIC WT [1]: > 40 µg/mL; MIC tolC (E. coli ∆tolC JW5503-1): 10 µg/mL; MIC acrB (E. coli ∆acrB JW0451-2): 10 µg/mL
CN(C)Cc1sc(NC(=O)c2ccc([N+](=O)[O-])s2)nc1-c1ccc(F)cc1 [compound 10, N-(5-((dimethylamino)methyl)-4-(4-fluorophenyl)thiazol-2-yl)-5-nitro thiophene-2-carboxamide]	> 40	2.5 (≈ 6.15 µM)	2.5 (≈ 6.15 µM)	fold change of MIC in ∆tolC (E. coli ∆tolC JW5503-1; compared to 9): four fold

Reference: PMC5940854, “Nitrothiophene carboxamides, a novel narrow spectrum antibacterial series: Mechanism of action and Efficacy” (Scientific Reports, 2018)
